Results reported in patent US20100249234A1, “METHODS OF REDUCING VIRULENCE IN BACTERIA” (UWM RESEARCH FOUNDATION, INC., priority 2007, published 2010).

Assays:
Format in all cases: cell-based, Dickeya dadantii 3937 (Ech3937)
rsmB mRNA = assay: qRT-PCR relative mRNA level of rsmB; conditions: Ech3937 in supplemented MM vs MM alone (normalized to 1)
Experimental: Bacterial strains were grown in MM. Total RNA from the bacterial cells was isolated by using the TRI reagent method (Sigma, Mo.) and treated with Turbo DNA-free DNase kits (Ambion, TX) as described (Peng et al., 2006). An iScript cDNA Synthesis Kit (Bio-Rad, CA) was used to synthesize cDNA from 0.5 μg of treated total RNA. The Real Master Mix (Eppendorf, Westbury, N.Y.) was used for qRT-PCR reaction to quantify the cDNA level of target genes in different samples. The rplU was used as the endogenous control for data analysis. qRT-PCR data were analyzed using Relative Expression Software Tool as described (Pfaffl, M. W., Horgan, G. W., and Dempfle, L. (2002) Relative expression software tool (REST) for group-wise comparison and statistical analysis of relative expression results in real-time PCR. Nucleic Acids Res 30:e36.).

hrpN promoter = hrpN promoter activity, GFP reporter plasmid phrpN, flow cytometry (FACS)
pPROBE-AT vector = assay: GFP expression control base level, pPROBE-AT vector, flow cytometry (FACS); conditions: MM + 0.1 mM compound, 12 h (Table 4)
Experimental: (§1) FACS analysis of promoter activity of dspE, hrpA, hrpL, hrpN, and hrpS was carried out as described (Peng et al., 2006). Briefly, the wild-type Ech3937 and the mutant strains carrying the promoter reporter plasmid were grown on LB broth at 28° C. overnight and transferred to appropriate media. For FACS analysis, samples were collected by centrifugation, washed with 1× phosphate buffer saline (PBS) at 13,000 rpm for 1 min, and re-suspended in 1×PBS to ca 10^6 CFU/ml prior to being run in a FACS Calibur flow cytometer (BD Biosciences, CA). Three replicates were performed for each treatment.
(§2) Since OCA and TCA induced the expression of hrpN, the effect of these two phenolic compounds on the expression of hrpA, hrpL, and hrpS was investigated further. […] GFP intensity was determined on gated populations of bacterial cells by flow cytometry and analyzed with the Cell Quest software (BD Biosciences, San Jose, Calif.). The lines labeled “1” stand for the GFP expression control base level of the Ech3937 containing pPROBE-AT vector; lines labeled “2” stand for the promoter activity of hrpS, hrpL, hrpA and hrpN in Ech3937 in MM; lines labeled “3” stand for the promoter activity of Ech3937 in MM supplemented with 0.1 mM OCA; lines labeled “4” stand for the promoter activity of hrpL mutant WPP96 in MM; lines labeled “5” stand for the promoter activity of hrpL mutant WPP96 in MM supplemented with 0.1 mM OCA. Values are representative of at least two experiments. […] Compared with MM alone, the average GFP fluorescence intensity of bacterial cells of Ech3937 (phrpA) was doubled when 0.1 mM of OCA and TCA were added to the medium (Table 4; FIG. 3). […] The mrp, whose protein product has an ATPase conserved domain (2e-06), was used as a reference gene in this study.

hrpS promoter = hrpS promoter activity, GFP reporter plasmid phrpS, flow cytometry (FACS); conditions: MM + 0.1 mM compound
Experimental: as §1, §2

mrp promoter = assay: mrp (reference gene) promoter activity, GFP reporter pmrp, flow cytometry (FACS); conditions: MM + 0.1 mM compound
Experimental: as §1, §2

Ech3937 = assay: Growth of Ech3937 in MM supplemented with compound; conditions: 0.05, 0.1 and 0.2 mM in MM (FIGS. 2A, 2B)
Text: Phenolic compounds constitute an important class of organic substances produced by plants. The phenolic compound SA is a signaling molecule that plays a role in host defenses. OCA and TCA are the biosynthetic precursors of SA and are also reported to induce the expression of defense-related genes in plants. OCA, TCA, and SA were examined to elucidate their effects on the expression of T3SS genes. The expression of the T3SS gene hrpN was examined in MM and MM supplemented with OCA, TCA, and SA, at concentrations of 0.05, 0.1, and 0.2 mM, respectively. FIGS. 2A and 2B show the promoter activities of hrpN in Dickeya dadantii 3937 (Ech3937) grown in MM and MM supplemented with 0.05, 0.1, and 0.2 mM OCA, TCA, and SA at 12 h (FIG. 2A) and 24 h (FIG. 2B) post-inoculation. GFP intensity was determined on gated populations of bacterial cells by flow cytometry and analyzed with the Cell Quest software (BD Biosciences, San Jose, Calif.). The growth of Ech3937 in MM supplemented with different concentrations of OCA, TCA and SA was recorded. Compared with MM alone, the average GFP fluorescence intensity of bacterial cells of Ech3937 (phrpN) was increased approximately 4-fold when 0.05 mM of OCA and TCA were added to the medium (FIGS. 2A, 2B).
The expression of the T3SS gene hrpA was further examined in MM and MM supplemented with PCA at concentrations of 0.001, 0.005, 0.01, 0.05 and 0.1 mM respectively. FIGS. 16A and 16B show the promoter activities of hrpA in Dickeya dadantii 3937 (Ech3937) grown in minimum medium (MM) and MM supplemented with different amount of p-coumaric acid (PCA) at 12 h (FIG. 16A) and 24 h (FIG. 16B) post-inoculation. GFP intensity was determined on gated populations of bacterial cells by flow cytometry and analyzed with the Cell Quest software (BD Biosciences, San Jose, Calif.). The growth of Ech3937 in MM supplemented with different concentrations of PCA was recorded. Compared with MM alone, the average GFP fluorescence intensity of bacterial cells of Ech3937 (phrpA) was reduced more than 4-fold when 0.05 and 0.1 mM of PCA were added to the medium (FIGS. 16A, 16B).

hrpA promoter = hrpA promoter activity, GFP reporter plasmid phrpA, flow cytometry (FACS)
Experimental: as §1
To identify potential compounds that repress activation of T3SS, analogs and isomers of TCA and intermediates of salicylic acid and phenypropanoid biosynthesis pathways in plants were further screened for their effect on Ech3937 hrpA expression by flow cytometry (Table 9). A green fluorescent protein (GFP) reporter plasmid phrpA (pProbe-AT derivative with PCR fragment containing hrpA promoter region) was constructed, resulting in a transcriptional fusion of hrpA promoter with GFP gene. Bacterial cells containing phrpA plasmid were grown in MM supplemented with 0.1 mM of each compound. GFP intensity, which is a measurement of hrpA promoter activity, was measured by flow cytometry.

hrpL promoter = hrpL promoter activity, GFP reporter plasmid phrpL, flow cytometry (FACS); conditions: MM + 0.1 mM compound
Experimental: as §1, §2

[1] = MM + 0.1 mM compound, 12 h (Table 4)
[2] = hrpL mutant WPP96, MM + 0.1 mM compound, 12 h (Table 4)
[3] = hrpL mutant WPP96, 12 h (Table 4)

O=C(O)/C=C/c1ccccc1 [TCA, t-cinnamic acid]
rsmB mRNA relative expression ratio (rsmB mRNA): 1.58 | increase of average GFP fluorescence intensity of Ech3937 (phrpN) compared with MM alone (hrpN promoter; 0.05 mM compound added to MM, 12 h and 24 h (FIGS. 2A, 2B)): approximately 4 fold | induction of hrpN expression in Ech3937 and in hrpX (WPP67), hrpY (WPP92), hrpS (WPP90) mutants (hrpN promoter; 0.1 mM compound in MM, 12 h (FIG. 5)): induced the expression of hrpN in Ech3937, but not in hrpX, hrpY, and hrpS mutants | GFP Intensity of Ech3937 (phrpN) (hrpN promoter; MM + 0.2 μM compound, 12 h): 65.1 ± 6.8 | GFP Intensity of Ech3937 (phrpN) (hrpN promoter; MM + 0.2 μM compound, 24 h): 163 ± 25 | GFP Intensity of Ech3937 (phrpN) (hrpN promoter; MM + 0.5 μM compound, 12 h): 73.4 ± 4.2 | GFP Intensity of Ech3937 (phrpN) (hrpN promoter; MM + 0.5 μM compound, 24 h): 158 ± 20 | GFP Intensity of Ech3937 (phrpN) (hrpN promoter; MM + 5 μM compound, 12 h): 134 ± 5.6 | GFP Intensity of Ech3937 (phrpN) (hrpN promoter; MM + 5 μM compound, 24 h): 266 ± 14 | GFP Intensity of Ech3937 (phrpN) (hrpN promoter; MM + 10 μM compound, 12 h): 147 ± 18 | GFP Intensity of Ech3937 (phrpN) (hrpN promoter; MM + 10 μM compound, 24 h): 284 ± 12 | GFP intensity (Mean Fluorescence Intensity) of Ech3937 (phrpN) (hrpN promoter; [1]): 103 ± 1 | GFP intensity (Mean Fluorescence Intensity) of WPP96 (phrpN) (hrpN promoter; [2]): 3.3 ± 0 | GFP intensity (Mean Fluorescence Intensity) of Ech3937 (pPROBE-AT) (pPROBE-AT vector): 1.9 ± 0 | GFP intensity of Ech3937 (phrpS) compared with MM alone (hrpS promoter; 12 h): slightly lower GFP intensity | GFP intensity (Mean Fluorescence Intensity) of Ech3937 (phrpS) (hrpS promoter; 12 h (Table 4)): 54 ± 2 | GFP intensity (Mean Fluorescence Intensity) of WPP96 (phrpS) (hrpS promoter; [3]): 360 ± 16 | mrp expression in Ech3937 (pmrp) compared with MM (mrp promoter; 12 h): slightly higher mrp expression | GFP intensity (Mean Fluorescence Intensity) of Ech3937 (pmrp) (mrp promoter; reference gene, 12 h (Table 4)): 105 ± 0.3 | bacterial growth of Ech3937 in supplemented MM (Ech3937): No reduction of bacterial growth | average GFP fluorescence intensity of Ech3937 (phrpA) compared with MM alone (hrpA promoter; 0.1 mM compound, 12 h): doubled | expression of hrpA, GFP intensity (Mean Fluorescence Intensity), Ech3937 carrying phrpA (hrpA promoter; MM + 0.1 mM compound, 6 h (Table 9)): 22.3 ± 2.1 | GFP intensity (Mean Fluorescence Intensity) of Ech3937 (phrpA) (hrpA promoter; [1]): 78 ± 0 | expression of hrpA, GFP intensity (Mean Fluorescence Intensity), Ech3937 carrying phrpA (hrpA promoter; MM + 0.1 mM compound, 12 h (Table 9)): 133.9 ± 12.9 | expression of hrpA, GFP intensity (Mean Fluorescence Intensity), Ech3937 carrying phrpA (hrpA promoter; MM + 0.1 mM compound, 24 h (Table 9)): 203.7 ± 16.1 | GFP intensity (Mean Fluorescence Intensity) of WPP96 (phrpA) (hrpA promoter; [2]): 6.2 ± 0.6 | promoter activity of hrpL compared with MM alone (hrpL promoter; Ech3937, 12 h): slightly higher promoter activity | GFP intensity (Mean Fluorescence Intensity) of Ech3937 (phrpL) (hrpL promoter; 12 h (Table 4)): 19 ± 1 | GFP intensity (Mean Fluorescence Intensity) of WPP96 (phrpL) (hrpL promoter; [3]): 331 ± 27
